What was measured:
neutrophils (PMN) = assay: BALF cell counts (cytospin, DifQuik), LPS-injured mice, single inhaled dose; assay type: in vivo; conditions: 1 hour following treatment
Procedure: Since substantial literature indicates neutrophils (PMN) are critical mediators of inflammatory damage in injured lung, we next assessed if inhaled Compound 1 attenuated PMN infiltration of LPS injured lungs. To achieve this, mice were injured with LPS and 24 h later received a single inhaled dose of Compound 1 and were sacrificed 1 hour after dosing. PMN infiltration was assessed by examining lung sections (qualitatively) and BALF (quantitatively) from Compound 1 treated and untreated mice. Quantitative examination was performed on BALF samples that were collected from each animal and subsequently subjected to cytospin centrifugation and DifQuik staining. The fraction of PMN present in each sample may be quantified by counting 300 cells of the inflammatory cell population across three different microscopic images. The obtained fraction may then be multiplied by the total cell count to estimate the number of PMNs present in the BALF.

LPS injured mice [1] = assay: FITC-albumin exclusion assay (BALF:serum), LPS-injured mice, q6h x 4 doses; assay type: in vivo; conditions: LPS then inhaled Compound 1 every 6 hours for 4 doses; n=5 (LPS alone 1.04±0.13, PBS 0.44±0.11)
Procedure: Based on the data, the effect of a 6 hour dosing interval (q6h) of Compound 1 on injured mice lung was explored. FIG. 8B schematizes the experimental LPS injury/Compound 1 treatment workflow utilized unless otherwise indicated. Briefly, mice were nasally instilled with LPS (1.5 mg/kg) followed by initiation of Compound 1 treatment 24 hours later (i.e., after a 24 hours rest period). Four doses of Compound 1 (12 mg/kg) were administered via nebulizer every 6 hours to maintain a constant presence of compound in the lung. PBS was administered as a control. Mice were sacrificed 6 hours following the fourth dose. It was next determined if LPS induced edema was a result of increased permeability of the pulmonary vascular barrier. This was achieved using a FITC-albumin exclusion assay. Approximately 1 hour prior to sacrifice, mice received a tail vein injection of 3 mg of FITC labeled albumin. BALF and serum were collected and the amount of labeled albumin in each sample (BALF FITC Albumin:serum FITC Albumin) was determined using a fluorescent plate reader.

integrin β1 = assay: Integrin β1 immunofluorescent staining of human neutrophils; assay type: cell-based; conditions: Compound 1 treatment for 1 hour, n=3, p<0.05
Source text: Regulation of cell motility by the integrin β1 subunit is well-documented in multiple cell types, with several lines of evidence indicating MMPs play a significant role in expression and cellular localization of integrin β1 during neutrophil migration (Dumin J A, et al. Pro-collagenase-1 (matrix metalloproteinase-1) binds the alpha(2)beta(1) integrin upon release from keratinocytes migrating on type I collagen. J Biol Chem 2001; 276(31); Ugarte-Berzal E, et al. A 17-residue sequence from the matrix metalloproteinase-9 (MMP-9) hemopexin domain binds alpha4beta1 integrin and inhibits MMP-9-induced functions in chronic lymphocytic leukemia B cells. J Biol Chem 2012; 287(33)). To determine if MMP inhibition by Compound 1 interfered with integrin β1 expression in human neutrophils, cells were seeded onto glass chamber slides followed by Compound 1 treatment for 1 hour. Cells were fixed and immunofluorescent staining was performed for integrin β1 and staining intensity was measured using NIH ImageJ and standardized to the number of cells per field.

neutrophils = assay: MTT assay of neutrophil viability; assay type: cell-based, human; conditions: 1 hour exposure, high and low concentrations
Procedure: To ensure the observed effects were not a result of reduced neutrophil viability, an MTT assay was utilized. Neutrophils were exposed to Compound 1 for 1 hour followed by addition of MTT to the culture medium for 30 minutes. Cells were then solubilized in DMSO and the absorbances were read on a microplate reader.

LPS injured mice [2] = assay: FITC-albumin BALF:serum ratio (vascular permeability/edema), LPS-injured mice, single inhaled dose; assay type: in vivo, C57BL/6J mice; conditions: LPS 1.5 mg/kg; 24 hours later single aerosolized dose 35 mg/kg; sacrifice one hour after; n=6/group (control 0.44, LPS 1.1)
Procedure: We next determined if inhaled Compound 1 attenuated specific features of acute inflammatory lung injury that were also observed in response to LPS. Again, 12-week-old male C57BL/6J mice were intranasally instilled with LPS (1.5 mg/kg of 1 mg/ml solution in sterile PBS). 24 hours later, these mice received a single dose of aerosolized MMP inhibitor (Compound 1, dissolved in PBS, 35 mg/kg) or PBS alone and a tail vein injection of FITC labeled albumin (FITC-albumin). One hour following nebulization, the mice were sacrificed. The left lung was fixed in formalin from each animal, paraffin embedded, sectioned and stained with H&E to examine histological features indicative of lung injury. These were achieved by visually scoring each slide based on a lung injury scoring system developed by the American Thoracic Society for animal models of inflammatory lung injury.
Tissue edema was assessed using two methods. First, serum and BALF fluid were collected from mice and FITC-albumin levels were measured in each using a fluorescent microplate reader. Fluid leakage into injured lungs is indicative of increased vascular permeability and could be indicative of edema. A greater fluid leakage would also be characterized by increased levels of FITC-albumin in the BALF. To determine the level of vascular permeability and edema, the ratio of BALF FITC-albumin to serum FITC-albumin was calculated. […]

MMP 9 = MMP 9 (Mus musculus, UniProt P41245); assay: MMP 9 Quantikine assay on BALF of LPS-injured mice, single inhaled dose; assay type: in vivo, C57BL/6J mice; parameters: assessed for MMP activity in both the bronchoalveolar lavage fluid (BALF) and lung tissue homogenate obtained from treated mice; from tissue; host or cells: bronchoalveolar lavage fluid (BALF) of LPS-injured C57BL/6J mice; conditions: LPS 1.5 mg/kg intranasal; 24 hours later single aerosolized dose 35 mg/kg; sacrifice one hour after nebulization
MMP 9, sequence (P41245 108-730): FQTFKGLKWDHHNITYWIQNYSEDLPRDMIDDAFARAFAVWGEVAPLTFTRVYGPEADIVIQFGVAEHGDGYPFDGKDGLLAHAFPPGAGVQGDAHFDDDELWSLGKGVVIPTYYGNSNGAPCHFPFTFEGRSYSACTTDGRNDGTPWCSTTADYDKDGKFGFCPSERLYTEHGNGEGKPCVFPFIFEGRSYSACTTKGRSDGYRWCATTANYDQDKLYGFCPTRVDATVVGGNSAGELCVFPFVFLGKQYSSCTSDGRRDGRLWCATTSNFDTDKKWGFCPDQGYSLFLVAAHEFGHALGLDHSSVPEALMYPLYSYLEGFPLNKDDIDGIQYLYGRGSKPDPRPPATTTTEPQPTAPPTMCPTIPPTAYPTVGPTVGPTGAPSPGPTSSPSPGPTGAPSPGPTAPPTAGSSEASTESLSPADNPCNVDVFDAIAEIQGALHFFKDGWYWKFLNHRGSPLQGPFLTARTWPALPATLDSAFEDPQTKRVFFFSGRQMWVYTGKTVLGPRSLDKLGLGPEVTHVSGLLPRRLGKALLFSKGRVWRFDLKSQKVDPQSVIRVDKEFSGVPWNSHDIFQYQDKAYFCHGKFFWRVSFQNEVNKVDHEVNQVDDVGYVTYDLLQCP
Procedure: (§1) MMP 9 was selected as a target as it is a well-established mediator of inflammation in lung injury. 12-week-old male C57BL/6J mice were intranasally instilled with LPS (1.5 mg/kg of 1 mg/ml solution in sterile PBS). 24 hours later, these mice received a single dose of aerosolized MMP inhibitor (Compound 1, dissolved in PBS, 35 mg/kg) or PBS alone. One hour following nebulization, the mice were sacrificed and assessed for MMP activity in both the bronchoalveolar lavage fluid (BALF) and lung tissue homogenate obtained from treated mice. One hour following nebulization of Compound 1, the presence of the aerosolized Compound 1 in the lung was confirmed at concentrations >100 ng/g of tissue. MMP activity in BALF was determined using a commercially available MMP 9 Quantikine assay from R&D systems.

[3] = Presence of aerosolized Compound 1 in lung of LPS-injured mice; assay type: in vivo, C57BL/6J mice; conditions: single aerosolized dose 35 mg/kg, one hour following nebulization
Procedure: as §1

[4] = LPS treated mice, single inhaled dose

With “butanamide, N-hydroxy-2-[[(4-hydroxyphenyl)sulfonyl](3-pyridinylmethyl)amino]-3-methyl, hydrochloride, (2R) [Compound 1]” the “total PMN counts in the BALF” value (neutrophils (PMN); LPS then 24 h later single inhaled dose, n=5/group, p=0.01 (LPS/PBS 5.3×10^6)) was 1.2×10^6 neutrophils/ml, the “macrophage count in the BALF” value (neutrophils (PMN); [4]) was “remained unchanged” and the “overall cell count in BALF” value (neutrophils (PMN); [4]) was “significant reduction”. The “FITC-albumin BALF:serum ratio” value (LPS injured mice [1]) was 0.49±0.13, the “integrin β1 fluorescence intensity per cell” value (integrin β1) was 2.88±1.23 RFU and the “neutrophil viability (MTT, reductive capacity)” value (neutrophils) was “no significant effect on neutrophil viability”. The “ratio of BALF FITC-albumin to serum FITC-albumin” value (LPS injured mice [2]) was 0.49, the “MMP 9 activity in BALF” value (MMP 9) was “inhibits MMP 9 activity in the BALF” and the “concentration of aerosolized Compound 1 in the lung” value [3] was > 100 ng/g of tissue.

Source: patent publication US20220008401A1, “COMPOSITIONS AND METHODS FOR TREATING PULMONARY DISEASE WITH MATRIX METALLOPROTEINASE INHIBITORS” (DARSHA LLC, priority 2019, published 2022)
